In PMC4692482, “Structure and Stability of the Dimeric Triosephosphate Isomerase from the Thermophilic Archaeon Thermoplasma acidophilum” (PLoS ONE, 2015):

Molecular target: T1, TaTPI (Thermoplasma acidophilum, UniProt Q9HLB6)
T1 construct: gene tpiA; full length, 216 residues, C-terminal His6-tag (pET-28a(+)), expressed in E. coli Rosetta 2(DE3)pLysS; 24,671 Da monomer; homodimer
Experiment: X-ray crystallography ([…] A)
Format: binding
Settings: 20 mM G3P incubated with apo protein 4 h at 4 C; pH 8.5; active site (Lys9, His89, Glu137); substrate analogue

T1 sequence (Q9HLB6 whole entry): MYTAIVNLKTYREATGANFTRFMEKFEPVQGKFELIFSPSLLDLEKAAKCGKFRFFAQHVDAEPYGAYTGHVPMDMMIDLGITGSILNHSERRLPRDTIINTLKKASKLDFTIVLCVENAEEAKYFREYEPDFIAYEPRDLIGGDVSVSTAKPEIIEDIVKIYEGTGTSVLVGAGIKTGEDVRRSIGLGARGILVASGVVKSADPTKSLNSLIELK

How did the “X-ray crystallography (2.17 A)” value turn out when `O=P(O)(O)OC[C@H](O)CO` [G3P, glycerol-3-phosphate] was run?
The value was “G3P is well positioned at the active site of TaTPI with functionally conserved residues”.
